This is an account of results in patent US10899747B2, “Biaryl piperidine amide compounds and methods of use thereof” (Athenex, Inc., priority 2017, dated 2021).

Each structure is given as a SMILES string. A value given as a limit tells only on which side of the number the result lay.

The assay concerns IL-2. The assay can be described thus: PHA-IL2 (cell activation and cytokine analysis). The class given is cell-based. As to conditions: 50% inhibition concentration class. The method, then:
Cells to be tested may include, but are not limited to, a) Jurkat (a transformed human T cell leukemia), b) whole blood isolated from human or rodent sources, c) peripheral blood mononuclear cells (PBMC) freshly isolated from human or rodent whole blood, or d) purified fractions of PBMC (e.g., CD4 T cells). Cells are plated in 96-well plates at a final density of 1.0-2.0×10^6 cells/ml in 150 ul of assay medium (RPMI+0.5% fetal calf serum). Test compounds are included at a final concentration of ≤20 uM and generally pre-incubated with cells for 30 minutes prior to stimulation. An appropriate stimulus is added, including but not limited to, a) phytohemagglutinin (PHA), b) phorbol myristate acetate (PMA) and ionomycin, or c) stimulatory antibodies to the T cell receptor (TCR) complex (e.g., anti-CD3ε) and CD28. Cell cultures are stimulated for 24-48 hours in a humidified incubator (37 degrees C./5% CO2). A fraction of the culture supernatant is than harvested from each well and assayed for the presence of appropriate cytokine using standard ELISA. Cytokines to be analyzed may include IL-2, IL-4, IL-10, IL-17, IL-22, IFNγ, and/or TNFα. If required, the number of cytokine producing cells can be determined using intracellular staining and flow cytometry. […]
A word on the IC50: it is the concentration needed to halve the response being measured. A higher IC50 goes with weaker potency. Take `O=C1NCCOc2ccc(CCC3CCN(C(=O)COc4ccccc4-c4ccccc4)CC3)cc21` [Compound 284]: the IC50 is < 1 µM. The same measure for `O=C(COc1ccccc1-c1ccccc1)N1CCC(CCc2cc3c(cc2CO)OCO3)CC1` [Compound 285]: 1 to 10 µM; for `O=C(CSc1ccccc1-c1ccccc1)N1CCC(CCc2ccc3c(c2)OCO3)CC1` [Compound 286]: 1 to 10 µM. The same measure for `COc1cccc(CCC2CCN(C(=O)CSc3ccccc3-c3ccccc3)CC2)c1` [Compound 287]: 1 to 10 µM; for `O=C(COc1ccccc1-c1ccc(F)cc1O)N1CCC(CCc2ccc3c(c2)OCO3)CC1` [Compound 288]: < 1 µM. For `N#Cc1ccc(-c2ccccc2OCC(=O)N2CCC(CCc3ccc4c(c3)OCO4)CC2)cn1` [Compound 289], the IC50 was < 1 µM.

For the molecule `COC(=O)c1ccc(CCC2CCN(C(=O)COc3ccccc3-c3ccc(C#N)cc3)CC2)cc1` [Compound 290], the IC50 was < 1 µM. The same measure for `N#Cc1ccc(-c2ccccc2OCC(=O)N2CCC(CCc3ccc4c(c3)OCCO4)CC2)cc1` [Compound 291]: < 1 µM; for `O=C(COc1ccccc1-c1ccc(Cl)nc1)N1CCC(CCc2ccc3c(c2)OCCO3)CC1` [Compound 292]: 1 to 10 µM. The same measure for `O=C(COc1ccccc1-c1ccc2[nH]ncc2c1)N1CCC(CCc2ccc3c(c2)OCCO3)CC1` [Compound 293]: < 1 µM; for `O=C(COc1ccccc1-c1ccc(F)cc1)N1CCC(CCc2ccc3c(c2)OCCO3)CC1` [Compound 294]: 1 to 10 µM; for `O=C(COc1ccccc1-c1ccccc1O)N1CCC(CCc2ccc3c(c2)OCCO3)CC1` [Compound 295]: 1 to 10 µM. The value for `O=C(COc1ccccc1-c1ccc(F)cc1O)N1CCC(CCc2ccc3c(c2)OCCO3)CC1` [Compound 296] was < 1 µM; that for `N#Cc1ccc(-c2ccccc2OCC(=O)N2CCC(CCc3ccc4c(c3)OCCO4)CC2)cn1` [Compound 297] was < 1 µM. In the case of `Cc1cc2c(cc1CCC1CCN(C(=O)COc3ccccc3-c3ccc(C#N)cc3)CC1)OCO2` [Compound 298], the IC50 is < 1 µM. Regarding `N#Cc1ccc(-c2ccccc2OCC(=O)N2CCC(CCc3cccc4c3OCO4)CC2)cc1` [Compound 299], the IC50 was < 1 µM. Regarding `CCCOc1ccc(CCC2CCN(C(=O)COc3ccccc3-c3ccc(C#N)cc3)CC2)cc1OCCC` [Compound 300], the IC50 was < 1 µM. The same measure for `CC(C)Oc1ccc(CCC2CCN(C(=O)COc3ccccc3-c3ccc(C#N)cc3)CC2)cc1OC(C)C` [Compound 301]: < 1 µM; for `CC1CC(CCc2ccccc2)CCN1C(=O)COc1ccccc1-c1ccc(C#N)cc1` (centres unmarked) [Compound 302]: < 1 µM. The value for `CC1CC(CCc2ccccc2)CCN1C(=O)COc1ccccc1-c1ccc(F)cc1O` (centres unmarked) [Compound 303] was 1 to 10 µM; that for `COc1cccc(CCC2CCN(C(=O)COc3ccccc3-c3ccc(F)cc3O)CC2)c1` [Compound 304] was < 1 µM; that for `O=C(COc1ccccc1-c1ccc(F)cc1O)N1CCC(CCc2ccc(N3CCOCC3)cc2)CC1` [Compound 305] was < 1 µM. `Cc1ccc(F)cc1CCC1CCN(C(=O)COc2ccccc2-c2ccc(F)cc2O)CC1` [Compound 306]: the IC50 was < 1 µM. In turn, `O=C(COc1ccccc1-c1ccc(F)cc1O)N1CCC(CCc2ccc(F)c(C(F)(F)F)c2)CC1` [Compound 307] returned an IC50 of 1 to 10 µM.

As to `COCc1ccc(CCC2CCN(C(=O)COc3ccccc3-c3ccc(F)cc3O)CC2)cc1` [Compound 308], the IC50 is < 1 µM. The value for `CCOc1ccc(CCC2CCN(C(=O)COc3ccccc3-c3ccc(F)cc3O)CC2)cc1` [Compound 309] was < 1 µM. The value for `O=C(COc1ccccc1-c1ccc(F)cc1O)N1CCC(CCc2cccc(C(F)(F)F)c2)CC1` [Compound 310] was < 1 µM; that for `CCOc1ccc(CCC2CCN(C(=O)COc3ccccc3-c3ccc(C(=O)c4ccccc4)cc3)CC2)cc1` [Compound 311] was < 1 µM; that for `O=C(C[S+]([O-])c1ccccc1-c1ccccc1)N1CCC(CCc2ccccc2)CC1` (centres unmarked) [Compound 312] was 10 to 50 µM. The value for `COc1cccc(CCC2CCN(C(=O)C[S+]([O-])c3ccccc3-c3ccccc3)CC2)c1` (centres unmarked) [Compound 313] was 10 to 50 µM. As to `O=C(c1ccccc1)c1ccc(-c2ccccc2OCC(=O)N2CCC(CCc3ccc(O)cc3)CC2)cc1` [Compound 314], the IC50 was < 1 µM.

With `N#Cc1ccc(-c2cc(C(=O)O)ccc2OCC(=O)N2CCC(CCc3ccccc3)CC2)cc1` [Compound 315], the IC50 lay within 1 to 10 µM. On to `CN(C)C(=O)c1ccc(OCC(=O)N2CCC(CCc3ccccc3)CC2)c(-c2ccc(C#N)cc2)c1` [Compound 316], for which the IC50 was in the range of 1 to 10 µM. The same measure for `CC(C)NC(=O)c1ccc(OCC(=O)N2CCC(CCc3ccccc3)CC2)c(-c2ccc(C#N)cc2)c1` [Compound 317]: < 1 µM; for `N#Cc1ccc(-c2cc(C(=O)N3CCOCC3)ccc2OCC(=O)N2CCC(CCc3ccccc3)CC2)cc1` [Compound 318]: 1 to 10 µM. The value for `CC(C)NC(=O)c1ccc(OCC(=O)N2CCC(CCc3ccccc3)CC2)c(-c2ccc(F)cc2O)c1` [Compound 319] was 10 to 50 µM; that for `NC(=O)c1ccc(OCC(=O)N2CCC(CCc3ccccc3)CC2)c(-c2ccc(F)cc2O)c1` [Compound 320] was < 1 µM. The same measure for `N#Cc1ccc(-c2cc(C(N)=O)ccc2OCC(=O)N2CCC(CCc3ccccc3)CC2)cc1` [Compound 321]: 1 to 10 µM. In turn, `N#Cc1ccc(-c2cc(C(=O)NCCO)ccc2OCC(=O)N2CCC(CCc3ccccc3)CC2)cc1` [Compound 322] returned an IC50 of 1 to 10 µM. `N#Cc1ccc(-c2ncccc2OCC(=O)N2CCC(CCc3ccc4c(c3)OCO4)CC2)cc1` [Compound 323] had an IC50 of 1 to 10 µM.

With `N#Cc1ccc(-c2cccnc2OCC(=O)N2CCC(CCc3ccc4c(c3)OCO4)CC2)cc1` [Compound 324], the IC50 lay in the range of 1 to 10 µM.

As to `CN(C)CCNC(=O)c1ccc(OCC(=O)N2CCC(CCc3ccccc3)CC2)c(-c2ccc(C#N)cc2)c1` [Compound 325], the IC50 lay in the range of 1 to 10 µM. The same measure for `O=C(COc1cccnc1-c1ccc(F)cc1O)N1CCC(CCc2ccc3c(c2)OCO3)CC1` [Compound 326]: 1 to 10 µM; for `N#Cc1ccc(-c2cnccc2OCC(=O)N2CCC(CCc3ccc4c(c3)OCO4)CC2)cc1` [Compound 327]: 10 to 50 µM; for `O=C(COc1cccnc1-c1ccc2[nH]ncc2c1)N1CCC(CCc2ccc3c(c2)OCO3)CC1` [Compound 328]: 1 to 10 µM. The value for `O=C(COc1ncccc1-c1ccc(F)cc1O)N1CCC(CCc2ccc3c(c2)OCO3)CC1` [Compound 329] was 10 to 50 µM; that for `O=C(COc1cccnc1-c1ccc(F)cc1O)N1CCC(CCc2ccccc2)CC1` [Compound 330] was 1 to 10 µM; that for `O=C(COc1ccncc1-c1ccc(F)cc1O)N1CCC(CCc2ccc3c(c2)OCO3)CC1` [Compound 331] was 10 to 50 µM. The same measure for `O=C(c1ccccc1)c1ccc(-c2ccccc2OCC(=O)N2CCC(CCc3cc(Br)c(O)c(Br)c3)CC2)cc1` [Compound 332]: 1 to 10 µM. For the molecule `Cc1cc(F)ncc1-c1ncccc1OCC(=O)N1CCC(CCc2ccccc2)CC1` [Compound 333], the IC50 was in the range of 10 to 50 µM. In turn, `N#Cc1ccc(-c2ncccc2OCC(=O)N2CCC(CCc3ccccc3)CC2)cn1` [Compound 334] had a 50% inhibitory concentration (IC50) of 1 to 10 µM. The same measure for `N#Cc1ccc(-c2ncccc2OCC(=O)N2CCC(CCc3ccc4c(c3)OCCO4)CC2)cn1` [Compound 335]: 1 to 10 µM. The same measure for `Cc1cc(F)ncc1-c1ncccc1OCC(=O)N1CCC(CCc2ccc3c(c2)OCCO3)CC1` [Compound 336]: 10 to 50 µM; for `O=C(COc1cccnc1-c1ccc(F)cc1O)N1CCC(CCc2ccc3c(c2)OCCO3)CC1` [Compound 337]: < 1 µM.

In turn, `O=C(COc1cccnc1-c1ccc(F)cc1O)N1CCC(CCc2ccc3c(c2)OCCCO3)CC1` [Compound 338] returned an IC50 of 1 to 10 µM. The same measure for `O=C(COc1cccnc1-c1ccc(F)nc1)N1CCC(CCc2ccc3c(c2)OCCCO3)CC1` [Compound 339]: 1 to 10 µM; for `O=C(COc1cccnc1-c1ccc(F)nc1)N1CCC(CCc2ccc3c(c2)OCO3)CC1` [Compound 340]: 1 to 10 µM; for `O=C(COc1cccnc1-c1ccc(F)nc1)N1CCC(CCc2ccc3c(c2)OCCO3)CC1` [Compound 341]: 1 to 10 µM. The same measure for `N#Cc1ccc(-c2ncccc2OCC(=O)N2CCC(CCc3ccc4c(c3)OCCCO4)CC2)cn1` [Compound 342]: 10 to 50 µM; for `O=C(COc1ccccc1-c1ccc2cc[nH]c2c1)N1CCC(CCc2ccc3c(c2)OCCCO3)CC1` [Compound 343]: 10 to 50 µM; for `O=C(/C=C/c1ccccc1-c1ccc(F)cc1O)N1CCC(CCc2ccc3c(c2)OCO3)CC1` [Compound 344]: 1 to 10 µM. The same measure for `N#Cc1ccc(OCC(=O)N2CCC(CCc3ccccc3)CC2)c(-c2ccc(F)cc2O)c1` [Compound 345]: < 1 µM; for `N#Cc1ccc(OCC(=O)N2CCC(CCc3ccc4c(c3)OCO4)CC2)c(-c2ccc(F)cc2O)c1` [Compound 346]: < 1 µM. On to `N#Cc1ccc(OCC(=O)N2CCC(CCc3ccc4c(c3)OCCO4)CC2)c(-c2ccc(F)cc2O)c1` [Compound 347], for which the IC50 was < 1 µM. The value for `O=C(COc1ccccc1-c1ccc(F)cc1O)N1CCC(CCc2ccccc2)CC1` [Compound 348] was < 1 µM.
